Patent US8394828B2 (Janssen Pharmaceutica, NV, priority 2003, dated 2013)
Where “and” joins values, the source holds several entries; their conditions need not be identical. Identical values can stand only once. Like-named read-outs stand apart in the source and are kept apart here.

Experiments:
[1] = system: carrageenan paw-induced thermal hyperalgesia; assay: Carrageenan Paw-induced Thermal Hyperalgesia; type: in vivo, mice or rats; conditions: read-out: % Recovery; for inhibition in vivo at 30 mg/kg: 30 mg/kg po
[2] = molecular target: T1, human VR1 (Homo sapiens, UniProt Q8NER1); assay: Human VR1 [3H] RTX binding assay; conditions: 3H-RTX binding; for Ki: hVR1, read-out: 3H-RTX binding assay Ki hVR1; for inhibition at 1 µM: compound at 1 μM
T1 construct: expressed in transfected cells; host or cells: HEK293
T1 sequence (Q8NER1 whole entry): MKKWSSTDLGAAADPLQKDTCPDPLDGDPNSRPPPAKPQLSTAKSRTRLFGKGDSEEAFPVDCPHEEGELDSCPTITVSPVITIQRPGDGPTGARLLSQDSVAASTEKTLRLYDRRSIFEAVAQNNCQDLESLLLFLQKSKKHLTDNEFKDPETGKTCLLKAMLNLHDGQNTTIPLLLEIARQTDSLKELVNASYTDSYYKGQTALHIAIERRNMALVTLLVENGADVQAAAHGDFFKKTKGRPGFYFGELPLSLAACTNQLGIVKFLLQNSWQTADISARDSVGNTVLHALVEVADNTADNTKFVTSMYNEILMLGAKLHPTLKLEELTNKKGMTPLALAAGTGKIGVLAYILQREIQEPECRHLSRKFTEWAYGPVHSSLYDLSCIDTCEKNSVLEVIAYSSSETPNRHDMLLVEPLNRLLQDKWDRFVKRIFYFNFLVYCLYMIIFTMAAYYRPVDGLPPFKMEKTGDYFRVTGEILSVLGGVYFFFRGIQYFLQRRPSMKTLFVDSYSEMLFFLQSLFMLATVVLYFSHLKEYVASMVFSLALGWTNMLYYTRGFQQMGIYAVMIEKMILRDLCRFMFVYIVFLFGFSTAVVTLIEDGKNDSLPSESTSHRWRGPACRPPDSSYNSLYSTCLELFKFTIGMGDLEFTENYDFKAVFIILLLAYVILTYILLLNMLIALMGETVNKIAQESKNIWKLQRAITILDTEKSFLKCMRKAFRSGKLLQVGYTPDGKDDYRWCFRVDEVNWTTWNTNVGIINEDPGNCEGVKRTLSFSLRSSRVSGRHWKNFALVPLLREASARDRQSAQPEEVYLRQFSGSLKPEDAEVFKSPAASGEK
Summary of the method: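 Membranes from HEK293 cells transfected with human VR1, about 120 μg protein/ml, incubated with [3H] RTX in HEPES buffer pH 7.4 with 0.25 mg/mL fatty acid-free BSA for 60 min at 37° C. Bound radioactivity measured by scintillation counting. Non-specific binding defined with 200 nM unlabeled RTX.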

[3] = molecular target: T1, human VR1; assay: Human VR1 functional assay (intracellular Ca++, FLIPR, capsaicin challenge); type: cell-based
Procedure: The functional activity of the test compounds was determined by measuring changes in intracellular calcium concentration using a Ca^++-sensitive fluorescent dye and FLIPR™ technology.
EC50 or IC50 values were determined from dose-response studies.

[4] = FLIPR functional assay IC50 hVR1 60 min, 60 min
[5] = hVR1, capsaicin challenge, read-out: FLIPR functional assay IC50 hVR1

SMILES	Ki [2]	IC50 [3, 4] [µM]	IC50 [3, 5]	inhibition at 1 µM [2] [%]	also measured
CC(C)(C)c1ccc(C=CC(=O)Nc2cnc3ccccc3c2Cl)cc1 [Example 82, 3-(4-tert-Butyl-phenyl)-N-(4-chloro-quinolin-3-yl)-acrylamide]	–	–	–	–	inhibition in vivo at 10 mg/kg ([1]; 10 mg/kg po): 70%
CCCCCN(C)c1ccc(CCC(=O)Nc2cnc3ccccc3c2)cc1 [Example 37, 3-[4-(Methyl-pentyl-amino)-phenyl]-N-quinolin-3-yl-propionamide]	0.178 µM	0.19	1.1 µM	–	inhibition in vivo at 30 mg/kg [1]: 58%
CN(CCc1ccccc1)c1ccc(C(=O)Nc2cnc3ccccc3c2)cc1 [Example 89, 4-(Methyl-phenethyl-amino)-N-quinolin-3-yl-benzamide]	0.0273 µM	0.072	1.9 µM	102	inhibition in vivo at 10 mg/kg ([1]; 10 mg/kg po): 42%
CN(CC1CCCCC1)c1ccc(CCC(=O)Nc2cnc3ccccc3c2)cc1 [Example 35, 3-[4-(Cyclohexylmethyl-methyl-amino)-phenyl]-N-quinolin-3-yl-propionamide]	0.0815 µM	0.39	0.26 µM	–	inhibition in vivo at 20 mg/kg ([1]; 20 mg/kg po): 87%
CCCCCN(C)c1ccc(C(=O)Nc2cnc3ccccc3c2)cc1 [Example 154, 4-(Methyl-pentyl-amino)-N-quinolin-3-yl-benzamide]	–	–	–	–	inhibition in vivo at 10 mg/kg ([1]; 10 mg/kg sc): 83%
CN(CCc1ccccc1)c1ccc(CCC(=O)Nc2cnc3ccccc3c2)cc1 [3-[4-(Methyl-phenethyl-amino)-phenyl]-N-quinolin-3-yl-propionamide]	0.192 µM	–	0.18 µM	90	–
CN(C(=O)c1ccc(N(C)C2CCCCC2)cc1)c1cnc2ccccc2c1 [4-(Cyclohexyl-methyl-amino)-N-methyl-N-quinolin-3-yl-benzamide]	–	–	2 µM	12	–
CC(C)n1c(C(F)(F)F)nc2cc(C(=O)Nc3cnc4ccccc4c3)ccc21 [1-Isopropyl-2-trifluoromethyl-1H-benzoimidazole-5-carboxylic acid quinolin-3-ylamide]	0.364 µM	–	8 µM	–	–
O=C(Nc1cnc2ccccc2c1)c1ccc(N2CC[C@@H]3CCCC[C@H]3C2)nc1 (relative stereo) [trans-6-(Octahydro-isoquinolin-2-yl)-N-quinolin-3-yl-nicotinamide]	0.0332 µM	–	0.085 µM	104	–
CCCCCN(C)c1cccc(C(=O)Nc2cnc3ccccc3c2)c1 [3-(Methyl-pentyl-amino)-N-quinolin-3-yl-benzamide]	0.262 µM	–	0.5 µM	72	–
CCC(C)(C)c1ccc(CCC(=O)Nc2cnc3ccccc3c2)cc1 [Example 14, 3-[4-(1,1-Dimethyl-propyl)-phenyl]-N-quinolin-3-yl-propionamide]	0.00524 µM	0.03	0.0367 µM	–	inhibition in vivo at 30 mg/kg [1]: 47%
O=C(Nc1cnc2ccccc2c1)c1ccc(N2CCC(Cc3ccccc3)CC2)cc1 [Example 180, 4-(4-Benzyl-piperidin-1-yl)-N-quinolin-3-yl-benzamide]	0.0176 µM	0.357	–	99	inhibition in vivo at 10 mg/kg ([1]; 10 mg/kg po): 64%
CCCCCCCNc1ccccc1C(=O)Nc1cnc2ccccc2c1 [2-Heptylamino-N-quinolin-3-yl-benzamide]	1.12 µM	5	1.6 µM	79	–
O=C(Nc1cnc2ccccc2c1)c1ccc2c(c1)CCCC2 [5,6,7,8-Tetrahydro-naphthalene-2-carboxylic acid quinolin-3-ylamide]	0.0623 µM	–	10 µM	–	–
CC(=O)N(c1ccc(C(=O)Nc2cnc3ccccc3c2)cc1)C1CCCCC1 [4-(Acetyl-cyclohexyl-amino)-N-quinolin-3-yl-benzamide]	–	–	10 µM	1	–
O=C(C=Cc1ccc(Cl)c(C(F)(F)F)c1)Nc1cnc2ccccc2c1 [Example 56, 3-(4-Chloro-3-trifluoromethyl-phenyl)-N-quinolin-3-yl-acrylamide]	–	–	–	–	inhibition in vivo at 10 mg/kg ([1]; 10 mg/kg po): 58%
CN(c1ccc(C(=O)Nc2cnc3ccccc3c2)cc1)C1CCCCCC1 [4-(Cycloheptyl-methyl-amino)-N-quinolin-3-yl-benzamide]	0.014 µM	–	0.4 µM	100	–
CCCCCN1CCc2cc(C(=O)Nc3cnc4ccccc4c3)ccc21 [Example 227, 1-Pentyl-2,3-dihydro-1H-indole-5-carboxylic acid quinolin-3-ylamide]	0.0241 µM	0.106	0.084 µM	98	inhibition in vivo at 10 mg/kg ([1]; 10 mg/kg po): 52%
O=C(Nc1cnc2ccccc2c1)c1ccc2c(c1)CCN2C(=O)C1CCCCC1 [1-Cyclohexanecarbonyl-2,3-dihydro-1H-indole-5-carboxylic acid quinolin-3-ylamide]	–	–	1.5 µM	25	–

SMILES	Ki [2]	IC50 [3, 4] [µM]	IC50 [3, 5]	inhibition at 1 µM [2] [%]	also measured
CCCCC(C)c1ccc(C(=O)Nc2cnc3ccccc3c2)cc1 (centres unmarked)	0.0132 µM and 0.015 µM	–	1.1 µM and 10 µM	–	–
O=C(Nc1cnc2ccccc2c1)c1ccc(N(Cc2ccccc2)Cc2ccccc2)cc1 [4-Dibenzylamino-N-quinolin-3-yl-benzamide]	0.441 µM	4.2	–	51	–
CCCCN(CCCC)c1ccc(C(=O)Nc2cnc3ccccc3c2)cc1 [4-Dibutylamino-N-quinolin-3-yl-benzamide]	0.241 µM	0.27	4.6 µM	–	–
CCCCCC=CCCCN(C)c1ccc(C(=O)Nc2cnc3ccccc3c2)cc1 [4-(Dec-4-enyl-methyl-amino)-N-quinolin-3-yl-benzamide]	0.0231 µM	0.066	–	104	–
CCCC(=O)N1CCc2cc(C(=O)Nc3cnc4ccccc4c3)ccc21 [1-Butyryl-2,3-dihydro-1H-indole-5-carboxylic acid quinolin-3-ylamide]	–	–	1.8 µM	2	–
O=C(Nc1cnc2ccccc2c1)c1ccc(N2CCCCCCCC2)cc1 [4-Azonan-1-yl-N-quinolin-3-yl-benzamide]	0.0118 µM	–	0.092 µM	–	–
O=C(Nc1cnc2ccccc2c1)c1ccc(N2CC[C@@H]3CCCC[C@@H]3C2)cc1 (relative stereo) [cis-4-(Octahydro-isoquinolin-2-yl)-N-quinolin-3-yl-benzamide]	0.0456 µM	0.22	0.185 µM	105	–
O=C(Nc1cnc2ccccc2c1)c1ccc(N2CCC(Cc3ccccc3)CC2)nc1 [4-Benzyl-3,4,5,6-tetrahydro-2H-{1,2′}bipyridinyl-5′-carboxylic acid quinolin-3-ylamide]	0.0256 µM	–	0.44 µM	100	–
CN(c1ccc(C=CC(=O)Nc2cnc3ccccc3c2)cc1)C1CCCCC1 [3-{4-(Cyclohexyl-methyl-amino)-phenyl}-N-quinolin-3-yl-acrylamide]	0.131 µM	0.4	–	91	–
CCN(c1ccc(C(=O)Nc2cnc3ccccc3c2)cc1)C1CCCCC1 [4-(Cyclohexyl-ethyl-amino)-N-quinolin-3-yl-benzamide]	0.0126 µM	–	0.3 µM	–	–
O=C(Nc1cnc2ccccc2c1)c1ccc2c(c1)CCN2 [2,3-Dihydro-1H-indole-5-carboxylic acid quinolin-3-ylamide]	–	–	10.5 µM	1	–
CN(c1ccc(CCC(=O)Nc2cnc3ccccc3c2)cc1)C1CCCCC1 [3-{4-(Cyclohexyl-methyl-amino)-phenyl}-N-quinolin-3-yl-propionamide]	1.17 µM	–	3.9 µM	51	–
O=C(Nc1cnc2ccccc2c1)c1cccc(NC2CCCCC2)c1 [3-Cyclohexylamino-N-quinolin-3-yl-benzamide]	–	–	3.2 µM	1	–
CCCCCCCCN(C)c1ccc(C(=O)Nc2cnc3ccccc3c2)cc1 [4-(Octyl-methyl-amino)-N-quinolin-3-yl-benzamide]	0.0147 µM	–	–	105	IC50 ([3]; read-out: FLIPR functional assay IC50 hVR1 60 min, 60 min): 0.19 µM
CN(Cc1ccccc1)c1ccc(C(=O)Nc2cnc3ccccc3c2)cc1 [4-(Benzyl-methyl-amino)-N-quinolin-3-yl-benzamide]	0.0753 µM	0.37	2.3 µM	98	–
CCCCCN(C)c1ccc(C(=O)Nc2cnc3ccccc3c2)cn1 [6-(Methyl-pentyl-amino)-N-quinolin-3-yl-nicotinamide]	0.122 µM	–	0.4 µM	91	–
CCCN1CCc2cc(C(=O)Nc3cnc4ccccc4c3)ccc21 [1-Propyl-2,3-dihydro-1H-indole-5-carboxylic acid quinolin-3-ylamide]	0.0156 µM	–	0.41 µM	93	–
CCCCCNc1ccc(C(=O)Nc2cnc3ccccc3c2)c(Cl)c1 [2-Chloro-4-pentylamino-N-quinolin-3-yl-benzamide]	–	–	10 µM	40	–
CCCCCN(CCCCC)c1cccc(C(=O)Nc2cnc3ccccc3c2)c1 [3-Dipentylamino-N-quinolin-3-yl-benzamide]	0.107 µM	0.26	–	93	–
